Patent US20240191177A1, “GROWTH PROMOTER FOR LACTIC ACID COCCI” (KIRIN HOLDINGS KABUSHIKI KAISHA, priority 2002, published 2024)

Experiments:
Format in all cases: cell-based
[1] = test system: Lactococcus lactis subsp. lactis JCM5805 strain; assay: Growth promoting effect, MRS medium, anaerobic cultivation (OD600)
Description: A Lactococcus lactis subsp. lactis JCM5805 strain was used as the lactic acid coccus.
The bacteria were counted by measuring the OD600 (turbidity) of the medium using an absorbance meter (Biochrom GeneQuant 1300).
Measured values were expressed as mean±standard error. One-way analysis of variance was followed by Tukey's test, and cases where p<0.05 relative to the control group were evaluated as having a significant difference.

[2] = test system: Lactococcus lactis subsp. lactis JCM5805 strain; assay: Growth promoting effect, MRS medium, aerobic cultivation (OD600); details: 0.5 to 2.0% by mass, 30° C. 24 hours, FIG. 2
Description: A Lactococcus lactis subsp. lactis JCM5805 strain was used as the lactic acid coccus. The medium used was MRS medium. […] Next, the bacterial cells were inoculated (seeded) so that the concentration of the bacterial cells was 0.1% (v/v) with respect to 10 ml of the medium, and the medium inoculated with the bacterial cells was placed in an automatic cultivation searching device OT-201 (Oriental Instruments: sometimes referred to as “bioplotter” herein), and cultivated at 30° ° C. for 24 hours (stirring intensity condition: Medium). The bacteria were counted by measuring the OD600 (turbidity) of the medium using an absorbance meter (Biochrom GeneQuant 1300). Measured values were expressed as mean±standard error. One-way analysis of variance was followed by Tukey's test, and cases where p<0.05 relative to the control group were evaluated as having a significant difference.

[3] = test system: Lactococcus lactis subsp. lactis JCM5805 strain; assay: Growth promoting effect, GM17 medium, anaerobic cultivation (OD600); details: 0.5 to 2% by mass, 30° C. 24 hours, FIG. 3
From the text: (§1) The lactic acid coccus described in Example 1, item (1), A was used.
The medium used was a medium obtained by adding 20 g/L of glucose to M17 medium (Difco M17 Broth, BD; the composition thereof is indicated in Table 2; the same applies hereinafter in the present specification) (sometimes referred to as “GM17 medium” herein). […] Next, the bacterial cells were inoculated (seeded) in a 15-ml conical tube (FALCON) so that the concentration of the bacterial cells was 0.1% (v/v) with respect to 10 ml of the prepared medium, and cultivated at 30° ° C. for 24 hours in an incubator (TOKYO […] CO., LTD.) (static cultivation).
(§2) Measurement was performed in a similar manner as described in Example 1, item (1), C.
(§3) Analysis was performed in a similar manner as described in Example 1, item (1), D.

[4] = test system: Lactococcus lactis subsp. lactis JCM5805 strain; assay: Growth promoting effect, GM17 medium, aerobic cultivation (OD600); details: 0.5 to 2% by mass, 30° C. 24 hours, FIG. 4
Description: as §1
The medium used was GM17 medium. […] Next, the bacterial cells were inoculated (seeded) so that the concentration of the bacterial cells was 0.1% (v/v) with respect to 10 ml of the prepared medium, and the medium inoculated with the bacterial cells was placed in an automatic cultivation searching device OT-201 (Oriental Instruments; sometimes referred to as “bioplotter” herein), and cultivated at 30° C. for 24 hours (stirring intensity condition: Medium).
as §2, §3

Pediococcus acidilactici = assay: Growth promoting effect on lactic acid cocci of the genus Pediococcus, MRS medium, anaerobic (Example 6); details: strain JCM8797, MRS medium, αKG 0.1 to 4 or 1 to 4% by mass, malic acid 0.1 to 2 or 1 to 2% by mass, FIG. 8
Description: (§4) The lactic acid cocci of the genus Pediococcus indicated in Table 5 were used as the bacterial cells.
(§5) Cultivation was performed in a similar manner as described in Example 1, item (1), B (i), except that α-ketoglutaric acid (concentrations shown in FIG. 8A (0.1 to 4% by mass) and FIG. 8C (1 to 4% by mass)) and malic acid (concentrations shown in FIG. 8B (0.1 to 2% by mass) and FIG. 8D (1 to 2% by mass)) were each added, as the dicarboxylic acids, to the medium (anaerobic cultivation).
as §2, §3

Pediococcus damnosus = assay: as above; details: strain JCM5886, MRS medium, αKG 0.1 to 4 or 1 to 4% by mass, malic acid 0.1 to 2 or 1 to 2% by mass, FIG. 8
Description: as §4, §5, §2, §3

[5] = 0.01 to 4.0% by mass, 30° C. 24 hours, FIG. 1A/1C

Row | SMILES | growth of the lactic acid coccus (OD600) as compared with the control [1, 5] | growth of the lactic acid coccus (OD600) as compared with the control [2] | growth of the lactic acid coccus (OD600) as compared with the control [3] | growth of the lactic acid coccus (OD600) as compared with the control [4] | growth of the lactic acid cocci belonging to the genus Pediococcus (OD600) as compared with the control (Pediococcus acidilactici) | growth of the lactic acid cocci belonging to the genus Pediococcus (OD600) as compared with the control (Pediococcus damnosus) | growth of the lactic acid coccus (OD600) as compared with the control ([1]; citric acid 0.25 to 1% by mass, FIG. 7)
1 | O=C(O)CCC(=O)C(=O)O [αKG, α-ketoglutaric acid] | significantly promoted in a concentration-dependent manner | significantly promoted in a concentration-dependent manner | significantly promoted | promoted in a concentration-dependent manner | significantly promoted in a concentration-dependent manner | significantly promoted in a concentration-dependent manner | –
2 | O=C(O)CC(O)C(=O)O (stereo not shown) [malic acid] | significantly promoted in a concentration-dependent manner | significantly promoted in a concentration-dependent manner | significantly promoted | promoted in a concentration-dependent manner | significantly promoted in a concentration-dependent manner | significantly promoted in a concentration-dependent manner | –
3 | O=C(O)CC(O)(CC(=O)O)C(=O)O [citric acid, reference compound] | – | – | – | – | – | – | significantly promoted
